pIC50: −log10 of the molar value. Read-outs that look alike come from different tables or passages of the source. Blank lines part the entries; values can stand above or below the compound they belong to.
What was measured:
CCK-8 = assay: Effects on gastric excreting capability (Gastric emptying test), CCK-8 challenge; type: in vivo, male ddY mice
Experimental: At 5 minutes' lapse thereafter, 0.1 ml of a 1.5% aqueous solution of methyl cellulose containing 0.05% phenolred (Sigma) was orally administered. After 15 minutes, the stomach was extracted and the gastric contents were mixed with a 10% aqueous solution of trichloroacetic acid. After the removal of the proteins, the residue was centrifuged at 3000 rpm for 10 minutes. To the supernatant was added a 1N solution of sodium hydroxide and the mixture was again centrifuged. Thereafter, OD560 value of the supernatant was measured by the spectrophotometer (Hitachi 200-10 type) to estimate the minimum effective dose (MED).

CCK receptor (pancreas) = target: T1, CCK receptor (pancreas) (Canis lupus familiaris, UniProt Q5D0K2); assay: CCK receptor-binding, pancreas (125I-CCK-8); set-up: species or system male mongrel adult dog
T1 construct: from tissue; host or cells: dog pancreas membranes (whole pancreas, homogenized and centrifuged)
T1 sequence (Q5D0K2 1-428): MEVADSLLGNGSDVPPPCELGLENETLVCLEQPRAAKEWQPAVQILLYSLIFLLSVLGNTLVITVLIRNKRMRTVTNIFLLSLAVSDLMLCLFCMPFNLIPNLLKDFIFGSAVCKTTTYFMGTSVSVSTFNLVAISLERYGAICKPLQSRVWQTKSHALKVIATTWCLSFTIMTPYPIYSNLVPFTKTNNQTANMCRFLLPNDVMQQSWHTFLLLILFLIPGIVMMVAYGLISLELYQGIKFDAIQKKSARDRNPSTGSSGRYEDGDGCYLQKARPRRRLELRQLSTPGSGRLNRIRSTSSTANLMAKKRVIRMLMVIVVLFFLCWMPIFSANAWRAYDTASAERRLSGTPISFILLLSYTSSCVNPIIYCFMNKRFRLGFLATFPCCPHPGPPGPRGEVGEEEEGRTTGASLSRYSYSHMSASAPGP
Experimental: The entire pancreas of a male mongrel adult dog was extracted and the fat tissues thereof were removed. The residual portion was homogenized in 50 mM tris hydrochloride (pH 7.5) (Blinkman·Polytron PT20). After the filtration with nylon cloth (120 mesh) followed by centrifugation (50,000×g, for 12 minutes), the obtained sediment was homogenized in a tris buffer solution in the same manner as mentioned above and the homogenate was centrifuged. The obtained sediment was suspended in a buffer solution for binding assay (5 mM magnesium chloride, chloride, 5 mM dithiothreitol, 2 mg/ml bovine serum albumin, 0.1 mg/ml bacitracin, and 50 mM tris hydrochloride, pH 7.2), containing 0.14 mg/ml trypsin-inhibitor (soy bean), and the suspension was used as the receptor source.

CCK receptor (brain) = target: T2, CCK receptor (brain); assay: CCK receptor-binding, brain (125I-CCK-8)
T2 construct: Brain; from tissue
T2 sequence (P32239 whole entry): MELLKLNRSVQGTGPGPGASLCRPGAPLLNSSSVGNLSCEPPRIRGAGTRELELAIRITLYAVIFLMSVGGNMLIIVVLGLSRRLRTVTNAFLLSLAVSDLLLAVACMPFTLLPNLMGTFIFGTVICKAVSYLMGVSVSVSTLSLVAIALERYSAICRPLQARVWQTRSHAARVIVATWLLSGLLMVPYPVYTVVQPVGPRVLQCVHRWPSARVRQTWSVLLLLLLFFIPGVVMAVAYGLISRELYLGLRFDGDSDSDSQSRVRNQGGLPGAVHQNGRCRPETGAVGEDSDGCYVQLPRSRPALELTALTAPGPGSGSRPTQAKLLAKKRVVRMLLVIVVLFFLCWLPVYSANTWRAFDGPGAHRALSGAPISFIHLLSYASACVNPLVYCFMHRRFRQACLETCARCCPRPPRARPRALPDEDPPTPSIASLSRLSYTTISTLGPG

Acute toxicity test = type: in vivo; conditions: oral; 6 male mice; observed for consecutive 5 days
Excerpt: The acute toxicity of the compounds of the present invention was studied with the use of 6 male mice.

[1] = pancreas membranes of dog, 125I-CCK-8, 20° C., 30 minutes, read-out: CCK binding, IC50 Pancreas

Compound: CN1C(=O)C(NC(=O)c2cc3ccccc3[nH]2)N=C(c2ccccc2)c2ccccc21 [Example L-364718, N-(2,3-Dihydro-1-methyl-2-oxo-5-phenyl-1H-1,4-benzodiazepin-3-yl)-1H-indole-2-carboxamide, reference compound]
minimal effective dose at 0.03 mg/kg (CCK-8; Mus musculus, po, 25 min, read-out: Gastric Emptying MED (minimum effective dose)): 0.1 to 0.3 mg/kg

Compound: CCc1cc2c(s1)-n1c(C)nnc1C(NC(=O)c1cc3ccccc3[nH]1)N=C2c1ccccc1Cl (stereo not shown) [Compound A, 4-(2-Chlorophenyl)-2-ethyl-6-(2-indolecarboxamido)-9-methyl-6H-thieno[3,2-f][1,2,4]triazolo[4,3-a][1,4]diazepine]
minimal effective dose at 0.03 mg/kg (CCK-8; Mus musculus, po, 25 min; read-out: Gastric Emptying MED (minimum effective dose)): 0.3 to 1 mg/kg
pIC50 (CCK receptor (pancreas)): 9.22
pIC50 (CCK receptor (brain)): 8.74
acute toxicity (Acute toxicity test): low toxicity

pIC50 (CCK receptor (pancreas); [1]): 6.10
Compound: CCK-4

pIC50 (CCK receptor (pancreas); [1]): 9.22
Compound: CCK-8: CCK-8 which consists of the 8 amino acids at the C terminus of CCK

Source: US4992437A, “Thienodiazepine compounds and their pharmaceutical use” (Yoshitomi Pharmaceutical Industries, Ltd., priority 1987, dated 1991)
